Results on 7 molecules are retold here after US10725057B2, “Method for pretreatment and method for analysis of lenalidomide in biological sample” (Shiseido Company, Ltd, priority 2014, dated 2020).

Data set [1] can be described thus: Racemization half-life under biological buffer conditions (Na-phosphorate buffer pH 7.4, 37° C.). To be noted: average of 3 tests ± SD.
A short description of data set [2]: Racemization half-life in human serum (37° C.). To be noted: for half-life in human serum compared to buffer: pH 7.4; for racemization half-life in serum, times longer than the corresponding TD enantiomer: human serum, 37° C. An excerpt:
The analysis method of the invention is shown as FIG. 15(b). The acid used to suspend the reaction while simultaneously precipitating and removing the protein was HClO4.
(§1) Apparatus: Nanospace SI-2 Series (Shiseido Corp.)

Data set [3] is described as follows: Stability of lenalidomide in different solvents (HPLC peak areas of the enantiomers). It counts as physicochemical. Conditions: 0.5 mg/mL racemic mixture, room temperature or 50° C., 24 hours. The procedure: A racemic mixture of 0.5 mg/mL lenalidomide in methanol, ethanol, isopropanol, acetonitrile or ethyl acetate, as the sample (product of Selleck Chemicals, US) was incubated at room temperature or at 50° C. for 24 hours, and the following HPLC conditions were employed for quantification of the lenalidomide enantiomers, for evaluation of the stability of lenalidomide in the different solvents.
as §1
Mobile phase: EtOH (100%)
Injection volume: 5 μL, Detection: UV 230 nm.
The peak areas for the enantiomers before and after incubation are shown in FIG. 1 (the initially observed peaks are enantiomer 1, and the next observed peaks are enantiomer 2). […] Lenalidomide was also stable even in isopropanol.

The subject of data set [4] is recurrent intractable multiple myeloma. Conditions: in combination with dexamethasone; cited from earlier work.
A short description of data set [5]: Dependence of racemization of lenalidomide enantiomers on pH in aqueous buffers at room temperature. It counts as physicochemical.
For data set [6], the system named is corneal vascularization elicited by bFGF or VEGF. Conditions: compared to the R-form or racemic form (NPL 6); cited from earlier work.
The conditions of data set [7]: human blood plasma (NPL 10); cited from earlier work.
For data set [8] the following is noted: NPL 5; cited from earlier work.

For the molecule `O=C1CC[C@@H](N2C(=O)c3ccccc3C2=O)C(=O)N1` [(R)-TD, R-thalidomide], in data set [1], the “racemization half-life in aqueous buffer” value is 4.92 ± 0.4 h. In data set [2], the “racemization half-life in human serum” value is 0.548 ± 0.417 h and the “half-life in human serum compared to buffer” value stood at 11.1%.
For the molecule `Nc1cccc2c1CN(C1CCC(=O)NC1=O)C2=O` (racemic) [lenalidomide, Lenalidomide], the “stability in solvent (decomposition)” value in data set [3] (acetonitrile and ethyl acetate) is “no decomposition was observed”. The stability in solvent result is recorded as “stable” in data set [3] (isopropanol); “highly unstable” in data set [3] (methanol and ethanol). Moreover, the success rate in data set [4] is recorded as 60%. The “stability of the enantiomers” value in data set [5] (acidic conditions (<pH 4)) was “stable”. In data set [5] (aqueous buffers pH 4 to 9, room temperature), the “increase of racemization half-life for every pH reduction of 1” value was 10 times. Also, the racemization half-life result in data set [5] (pH 4, room temperature) is recorded as “estimation of the half-life was no longer possible”. Moreover, the “racemization and decomposition (peak areas) in aqueous buffer” value in data set [5] (pH 9 and 8, room temperature) is “racemization and decomposition of LL takes place”.
On to `O=C1CC[C@H](N2C(=O)c3ccccc3C2=O)C(=O)N1` [(S)-TD, S-thalidomide], for which, in data set [1], the “racemization half-life in aqueous buffer” value amounted to 4.43 ± 0.167 h. Also, in data set [2], the “racemization half-life in human serum” value worked out at 0.363 ± 0.0167 h and the “half-life in human serum compared to buffer” value is 8.2%.
Turning to “3-amino-phthalimide-glutarimide [S-pomalidomide]”, the “inhibition of corneal vascularization” value in data set [6] was “significantly inhibit”.
As for `Nc1cccc2c1CN([C@H]1CCC(=O)NC1=O)C2=O` (single isomer, unassigned) [(S*)-LL], the “racemization half-life in aqueous buffer” value in data set [1] was found to be 4.53 ± 0.0217 h. In data set [2], the “racemization half-life in serum, times longer than the corresponding TD enantiomer” value was found to be 6 times and the “racemization half-life in human serum” value was 2.18 ± 0.0817 h. The “racemization on incubation in aqueous buffer” value in data set [5] (pH 6, room temperature) is “A small amount of (R*)-LL was produced”. Also, in data set [5] (pH 7 and higher, room temperature), the “racemization on incubation in aqueous buffer” value is recorded as “racemization was significantly accelerated”.
Regarding `Nc1cccc2c1CN([C@@H]1CCC(=O)NC1=O)C2=O` (single isomer, unassigned) [(R*)-LL], the “racemization half-life in aqueous buffer” value in data set [1] was 4.45 ± 0.0183 h. In addition, in data set [2], the “racemization half-life in serum, times longer than the corresponding TD enantiomer” value is 3 times and the “racemization half-life in human serum” value was 1.82 ± 0.0333 h.
For the molecule `O=C1CCC(N2C(=O)c3ccccc3C2=O)C(=O)N1` (racemic) [thalidomide], in data set [7], the “racemization half-life in human blood plasma” value is listed as “approximately 10 minutes”. Further, in data set [8], the sedative action result is “only been reported with the R-form”.
